{"source": "ChEMBL document CHEMBL1146433", "about": "“Bripiodionen, a new inhibitor of human cytomegalovirus protease from Streptomyces sp. WC76599” (J Nat Prod, 1997)", "key": {"M109": {"tested_on": "M109", "assay": "Cytotoxicity against mouse M109 cells after 72 hrs by XTT assay", "format": "functional, cell-based", "conditions": "M109, 72 h"}, "[1]": {"assay": "Inhibition of HCMV protease", "parameters": "species or system Human betaherpesvirus 5"}}, "data": [{"smiles": "CC(C)C1O/C(=C2/C(=O)NC(CC(N)=O)C2=O)C=CC1C", "note": "(configuration not stated) [BRIPIODIONEN]", "values": [{"measurement": "IC50", "setting": "M109", "value": 34, "unit": "µM"}, {"measurement": "IC50", "setting": "[1]", "value": 30, "unit": "µM"}]}]}
